Results taken from the supplement of paper PMC10627819.

What was measured:
S. aureus DSM 20231 [1] = assay: fitness (endpoint OD595 vs no drug) (fraction); higher = more growth
In short: (§1)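 Bacterial fitness was scored as optical density at the stationary-phase transition relative to the robust mean of no-drug control wells. Scores are capped at 1. The growth data were OD595 readings every 30 min for 14 h at 37 °C, background-subtracted against the first reading, from 384-well plates inoculated at OD595 0.01 in TSB, LB Lennox or CY.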

S. aureus Newman [2] = assay: as above
In short: as §1

S. pneumoniae D39V [3] = assay: as above
In short: as §1

B. subtilis 168 = assay: Bliss interaction score (quartile over a dose matrix) (fitness difference); higher = more antagonism (negative = synergy)
In short: (§2)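 The Bliss score is observed minus expected fitness, where expected fitness is the product of the single-drug fitness values inferred from the combination data. Fitness is the OD595 at the onset of stationary phase over the plate's robust no-drug mean, capped at 1. Scores are summarised by quartiles over technical, biological and donor/recipient replicates.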

S. aureus DSM 20231 [4] = assay: as above
In short: as §2

S. aureus Newman [5] = assay: as above
In short: as §2

S. pneumoniae D39V [6] = assay: as above
In short: as §2
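Throughout, for Bliss interaction score (quartile over a dose matrix): first quartile when negative (synergy) and third quartile when positive (antagonism).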
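Throughout, for fitness (endpoint OD595 vs no drug): OD595 on entry to stationary phase over no-drug wells; at most 1.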

CC1(C)S[C@@H]2[C@H](NC(=O)[C@H](N)c3ccc(O)cc3)C(=O)N2[C@H]1C(=O)O [Amoxicillin] + CN[C@@H]1[C@H](O)[C@H](NC)[C@H]2O[C@@]3(O)C(=O)C[C@@H](C)O[C@H]3O[C@@H]2[C@H]1O [Spectinomycin]
fitness
Conditions | partner 4 µg/mL | partner 8 µg/mL | partner 16 µg/mL
S. aureus DSM 20231 [1], first compound 0.0625 µg/mL | 0.649 | 0.63 | 0.572
S. aureus DSM 20231 [1], first compound 0.125 µg/mL | 0.414 | – | –
S. aureus DSM 20231 [1], first compound 0.25 µg/mL | – | 0.148 | –
S. aureus Newman [2], first compound 0.0625 µg/mL | 0.874 | 0.876 | 0.823
S. aureus Newman [2], first compound 0.125 µg/mL | 0.875 | 0.861 | 0.816
S. aureus Newman [2], first compound 0.25 µg/mL | 0.863 | 0.826 | –
S. pneumoniae D39V [3], first compound 0.0008 µg/mL | 0.962 | 0.911 | –
S. pneumoniae D39V [3], first compound 0.0015 µg/mL | 0.975 | 0.94 | 0.887
S. pneumoniae D39V [3], first compound 0.003 µg/mL | 0.882 | 0.89 | 0.826

one replicate
Conditions | fitness
S. aureus DSM 20231 [1], first compound 0.0625 µg/mL, partner 32 µg/mL | 0.533
S. aureus DSM 20231 [1], first compound 0.0625 µg/mL, partner 64 µg/mL | 0.0322
S. aureus DSM 20231 [1], first compound 0.125 µg/mL, partner 32 µg/mL | 0.302
S. aureus DSM 20231 [1], first compound 0.125 µg/mL, partner 64 µg/mL | 0.0172
S. aureus DSM 20231 [1], first compound 0.25 µg/mL, partner 32 µg/mL | 0.0187
S. aureus DSM 20231 [1], first compound 0.25 µg/mL, partner 64 µg/mL | 0.0033
S. aureus DSM 20231 [1], first compound 0.5 µg/mL, partner 4 µg/mL | 0.0014
S. aureus DSM 20231 [1], first compound 0.5 µg/mL, partner 8 µg/mL | 0.0081
S. aureus DSM 20231 [1], first compound 0.5 µg/mL, partner 16 µg/mL | 0
S. aureus Newman [2], first compound 0.0625 µg/mL, partner 32 µg/mL | 0.373
S. aureus Newman [2], first compound 0.0625 µg/mL, partner 64 µg/mL | 0.0208
S. aureus Newman [2], first compound 0.125 µg/mL, partner 32 µg/mL | 0.308
S. aureus Newman [2], first compound 0.125 µg/mL, partner 64 µg/mL | 0.03
S. aureus Newman [2], first compound 0.25 µg/mL, partner 32 µg/mL | 0.141
S. aureus Newman [2], first compound 0.25 µg/mL, partner 64 µg/mL | 0.0162
S. pneumoniae D39V [3], first compound 0.0008 µg/mL, partner 16 µg/mL | 0.951
S. pneumoniae D39V [3], first compound 0.006 µg/mL, partner 4 µg/mL | 0.274
S. pneumoniae D39V [3], first compound 0.006 µg/mL, partner 8 µg/mL | 0.329
S. pneumoniae D39V [3], first compound 0.006 µg/mL, partner 16 µg/mL | 0.416

Conditions | Bliss interaction score
B. subtilis 168 | -0.0495
S. aureus DSM 20231 [4] | 0.0589
S. aureus Newman [5] | 0.0408
S. pneumoniae D39V [6] | 0.0712

CC1(C)S[C@@H]2[C@H](NC(=O)[C@H](N)c3ccc(O)cc3)C(=O)N2[C@H]1C(=O)O [Amoxicillin] + CN[C@H](CC(C)C)C(=O)N[C@H]1C(=O)N[C@@H](CC(N)=O)C(=O)N[C@H]2C(=O)N[C@H]3C(=O)N[C@H](C(=O)N[C@H](C(=O)O)c4cc(O)cc(O)c4-c4cc3ccc4O)[C@H](O)c3ccc(c(Cl)c3)Oc3cc2cc(c3O[C@@H]2O[C@H](CO)[C@@H](O)[C@H](O)[C@H]2O[C@H]2C[C@](C)(N)[C@H](O)[C@H](C)O2)Oc2ccc(cc2Cl)[C@H]1O [Vancomycin]
Conditions | fitness
S. aureus DSM 20231 [1], first compound 0.0625 µg/mL, partner 0.1875 µg/mL | 0.605
S. aureus DSM 20231 [1], first compound 0.0625 µg/mL, partner 0.375 µg/mL | 0.667
S. aureus DSM 20231 [1], first compound 0.125 µg/mL, partner 0.1875 µg/mL | 0.397
S. aureus DSM 20231 [1], first compound 0.125 µg/mL, partner 0.375 µg/mL | 0.452
S. aureus DSM 20231 [1], first compound 0.25 µg/mL, partner 0.1875 µg/mL | 0.125
S. aureus DSM 20231 [1], first compound 0.25 µg/mL, partner 0.375 µg/mL | 0.15
S. aureus DSM 20231 [1], first compound 0.25 µg/mL, partner 0.75 µg/mL | 0.176
S. aureus DSM 20231 [1], first compound 0.5 µg/mL, partner 0.1875 µg/mL | 0.0104
S. aureus DSM 20231 [1], first compound 0.5 µg/mL, partner 0.375 µg/mL | 0.0135
S. aureus DSM 20231 [1], first compound 0.5 µg/mL, partner 0.75 µg/mL | 0.0165
S. aureus Newman [2], first compound 0.0625 µg/mL, partner 0.1875 µg/mL | 0.916
S. aureus Newman [2], first compound 0.0625 µg/mL, partner 0.375 µg/mL | 0.914
S. aureus Newman [2], first compound 0.0625 µg/mL, partner 0.75 µg/mL | 0.879
S. aureus Newman [2], first compound 0.125 µg/mL, partner 0.1875 µg/mL | 0.887
S. aureus Newman [2], first compound 0.125 µg/mL, partner 0.375 µg/mL | 0.875
S. aureus Newman [2], first compound 0.125 µg/mL, partner 0.75 µg/mL | 0.877
S. aureus Newman [2], first compound 0.25 µg/mL, partner 0.1875 µg/mL | 0.89
S. aureus Newman [2], first compound 0.25 µg/mL, partner 0.375 µg/mL | 0.866
S. aureus Newman [2], first compound 0.25 µg/mL, partner 0.75 µg/mL | 0.811
S. pneumoniae D39V [3], first compound 0.0008 µg/mL, partner 0.03125 µg/mL | 0.988
S. pneumoniae D39V [3], first compound 0.0008 µg/mL, partner 0.0625 µg/mL | 0.871
S. pneumoniae D39V [3], first compound 0.0008 µg/mL, partner 0.125 µg/mL | 0.894
S. pneumoniae D39V [3], first compound 0.0015 µg/mL, partner 0.03125 µg/mL | 0.977
S. pneumoniae D39V [3], first compound 0.0015 µg/mL, partner 0.0625 µg/mL | 0.852
S. pneumoniae D39V [3], first compound 0.0015 µg/mL, partner 0.125 µg/mL | 0.913
S. pneumoniae D39V [3], first compound 0.0015 µg/mL, partner 0.25 µg/mL | 0.869
S. pneumoniae D39V [3], first compound 0.0015 µg/mL, partner 0.5 µg/mL | 0.299
S. pneumoniae D39V [3], first compound 0.003 µg/mL, partner 0.03125 µg/mL | 0.861
S. pneumoniae D39V [3], first compound 0.003 µg/mL, partner 0.0625 µg/mL | 0.762
S. pneumoniae D39V [3], first compound 0.003 µg/mL, partner 0.125 µg/mL | 0.783
S. pneumoniae D39V [3], first compound 0.003 µg/mL, partner 0.25 µg/mL | 0.742
S. pneumoniae D39V [3], first compound 0.003 µg/mL, partner 0.5 µg/mL | 0.289

fitness, S. pneumoniae D39V [3], one replicate
Conditions | partner 0.125 µg/mL | partner 0.25 µg/mL | partner 0.5 µg/mL
first compound 0.0008 µg/mL | – | 0.928 | 0.33
first compound 0.006 µg/mL | 0.234 | 0.13 | 0.0321

Conditions | Bliss interaction score
B. subtilis 168 | -0.0442
S. aureus DSM 20231 [4] | 0.074
S. aureus Newman [5] | 0.0681
S. pneumoniae D39V [6] | 0.101
